Assay results from patent US20180344725A1, “QUINOLONE CHALCONE COMPOUNDS AND USES THEREOF” (priority 2015, published 2018).

Legend:
184B5 = assay: SRB-based cytotoxicity assay; format: cell-based; settings: 184B5 non-cancer
Experimental: (§1) For (anti)proliferation assays, 4,000-5,000 cells/well of the 96-well clustered dish were incubated for 16 hours, as described previously (Hu et al., 2008; Skehan et al., 1990). After 16 hours, culture medium was replaced with fresh medium containing different dilutions of test compounds dissolved in DMSO. Some wells were treated with 100 μl of 10% trichloroacetic acid (TCA) as a negative control and sham (medium with dimethyl sulfoxide; DMSO) treated cells were used as a positive control. After 72 hours post-incubation, medium was removed and cells were fixed with 10% TCA at 4° C. for 1 hour. TCA was removed and cells were washed with cold tap water, and plate was air-dried, followed by addition of 50 μl of 0.4% SRB staining solution to each well. After 30 minutes incubation, SRB staining solution was removed. Cells were washed with 1% acetic acid solution, and then washed with tap water to remove unbound staining solution, followed by air-drying. 200 μl of 10 mM (pH10.5) trizma base buffer was added to each well to solubilise macromolecules. SRB stained macromolecules were determined at a 540 nm wavelength using an automated plate reader (Synergy H4 Hybrid Multi-Mode Microplate Reader, BioTek, Winooski, Vt.). Cell growth (inhibition) was calculated by the following formula:
(§2) % cells proliferation=[(AT−CT)/(ST−CT)]×100
(§3) wherein AT=absorbance of treated cells, CT=absorbance of negative control cells, and ST=absorbance of sham treated cells. IC50 values were calculated from sigmoidal dose-response curves generated by two independent biological replicates, with quadruplicate in each set by using Graph Pad Prism v.5.04 software. […] The combinational index (CI) was calculated as described previously (Chou 2006). If the CI values were less than, equal to or more than 1, it indicates a synergistic, additive or antagonistic effect respectively (Chou 2006). CI values were determined from four independent experiments.

MCF-10A = assay: SRB-based cytotoxicity assay; format: cell-based; settings: Homo sapiens, MCF-10A; MCF10A non-cancer; 72 hours; Table 4
Experimental: as §1, §2, §3

MDA-MB-231 = assay: SRB-based cytotoxicity assay; format: cell-based, human
Experimental: as §1, §2, §3

MDA-MB231TaxR = assay: SRB-based cytotoxicity assay, single and combination with paclitaxel; format: cell-based; settings: TaxR selected in 100.0 nM paclitaxel
Experimental: All of the cell lines used were purchased from ATCC and cultured in RPMI-1640 supplemented with 10% fetal bovine serum and antibiotics (100 units penicillin/100 μg/ml streptomycin), unless stated otherwise. 1845B5 and MCF-10A non-cancer breast cell lines were cultured in DME/F12 medium supplemented with 10% fetal bovine serum, antibiotics and growth factors. […] The human small cell lung carcinoma H69 cell line and its multidrug-resistant MRP1-overexpressing isogenic H69AR cell line were purchased from ATCC. […] H69 cells grow as large multi-cell aggregates, making it difficult to accurately count cell numbers. […] The IL-6 dependent bortezomib-resistant ANBL6-BR cell line was further supplemented with 1 ng/ml of IL-6. The MCF10AT1 and MCF10CA1a cell lines are isogenic to the MCF10A cell line, and obtained from Dr. Valerie Weaver at the Center for Bioengineering and Tissue Regeneration, UCSF, CA, USA. MCF10AT1 is a premalignant cell line generated by transforming MCF10A with c-Ha-Ras; and MCF10CA1a was isolated by selecting malignant cells after MCF10AT1 cells were engrafted into mice (Liu & Lin 2004; […] et al. 2009). […] The drug-resistant cells were cultured in the absence of drug for at least one passage before carrying out experiments. All cells were maintained in a humidified incubator at 37° C. […] Cell line authentication was performed using short tandem repeat (STR) profiling. For (anti)proliferation assays, 4,000-5,000 cells/well of the 96-well clustered dish were incubated for 16 hours, as described previously (Hu et al., 2008; Skehan et al., 1990). […] Some wells were treated with 100 μl of 10% trichloroacetic acid (TCA) as a negative control and sham (medium with dimethyl sulfoxide; DMSO) treated cells were used as a positive control. […] TCA was removed and cells were washed with cold tap water, and plate was air-dried, followed by addition of 50 μl of 0.4% SRB staining solution to each well. After 30 minutes incubation, SRB staining solution was removed. Cells were washed with 1% acetic acid solution, and then washed with tap water to remove unbound staining solution, followed by air-drying. 200 μl of 10 mM (pH10.5) trizma base buffer was added to each well to solubilise macromolecules. […] Cell growth (inhibition) was calculated by the following formula: % cells proliferation=[(AT-CT)/(ST-CT)]×100 wherein AT=absorbance of treated cells, CT=absorbance of negative control cells, and ST=absorbance of sham treated cells. […] The combinational index (CI) was calculated as described previously (Chou 2006). […] CI values were determined from four independent experiments.

MCF-7 = assay: SRB-based cytotoxicity assay; format: cell-based, human
Experimental: as §1, §2, §3

HeLa = assay: SRB-based cytotoxicity assay; format: cell-based; settings: Homo sapiens; HeLa; 72 hours; Table 4
Experimental: as §1, §2, §3

RPMI-8226 (myeloma) = assay: SRB-based cytotoxicity assay; format: cell-based; settings: Homo sapiens, 72 hours, Table 4
Experimental: as §1, §2, §3

RPMI-8226BTZR = assay: Killing of bortezomib-resistant multiple myeloma cells; format: cell-based
From the text: The RPMI-8226BTZR over-expresses β1, β2 and β5 peptides of the 20S subunit. […] However, RPMI-8226BTZR is sensitive to CTR-20, CTR-21 and CTR-32 (FIG. 36).

MDA-MB-468 = assay: SRB-based cytotoxicity assay; format: cell-based, human; settings: MDA-MB-468, SRB, Table 2
Experimental: as §1, §2, §3

[1] = Homo sapiens, 72 hours, Table 4

## COc1ccc(OC)c(C(=O)/C=C/c2cc3cc(OC)ccc3[nH]c2=O)c1 [CTR-34]
184B5; [1]
  IC50: 1160 ± 100 nM
MCF-10A
  IC50: 980 ± 40 nM

## COc1ccc(C(=O)/C=C/c2cc3ccccc3[nH]c2=O)c(OC)c1 [CTR-27]
MDA-MB-231; MDA-MB231, 72 hours, Table 4
  IC50: 2690 ± 240 nM
184B5; [1]
  IC50: 2800 ± 180 nM
MCF-10A
  IC50: 2520 ± 30 nM

## COc1ccc2[nH]c(=O)c(/C=C/C(=O)c3ccc(OC(F)(F)F)cc3OC)cc2c1 [CTR-36]
184B5; [1]
  IC50: 1840 ± 70 nM
MCF-10A
  IC50: 1350 ± 160 nM

## COc1cc2cc(/C=C/C(=O)c3ccccc3OC)c(=O)[nH]c2cc1OC [CTR-24]
184B5; [1]
  IC50: 2370 ± 190 nM
MCF-10A
  IC50: 2100 ± 390 nM

## CN(C)CC[C@H](CSc1ccccc1)Nc1ccc(S(=O)(=O)NC(=O)c2ccc(N3CCN(Cc4ccccc4-c4ccc(Cl)cc4)CC3)cc2)cc1[N+](=O)[O-] [ABT-737, reference compound]
MDA-MB-231; single agent 3.125 μM, MDA-MB231
  Cell survival rate: 98.61 ± 3.93
MDA-MB-231; single agent 6.25 μM, MDA-MB231
  Cell survival rate: 91.01 ± 9.81

## COc1cc2c(c(OC)c1OC)-c1ccc(OC)c(=O)cc1[C@@H](NC(C)=O)CC2 [Colchicine, reference compound]
MDA-MB231TaxR
  killing of MDA-MB231TaxR compared with parental MDA-MB231: to the same degree as the parental MDA-MB231 cells

## COc1ccc2[nH]c(=O)c(/C=C/C(=O)c3cc(F)ccc3OC)cc2c1 [CTR-37]
184B5; [1]
  IC50: 440 ± 20 nM
MCF-10A
  IC50: 460 ± 110 nM

## COc1ccc(F)cc1C(=O)/C=C/c1cc2ccccc2[nH]c1=O [CTR-29]
184B5; [1]
  IC50: 280 ± 10 nM
MCF-10A
  IC50: 270 ± 50 nM

## COc1ccccc1C(=O)/C=C/c1cc2cc(C)c(C)cc2[nH]c1=O [CTR-23]
MCF-7; Homo sapiens, MCF7, 72 hours, Table 4
  IC50: 500 ± 100 nM
MDA-MB-231; Homo sapiens, MDA-MB-231, MDA-MB231, 72 hours, Table 4
  IC50: 1520 ± 120 nM
184B5; [1]
  IC50: 1320 ± 30 nM
HeLa
  IC50: 640 ± 50 nM
MCF-10A
  IC50: 1120 ± 40 nM
RPMI-8226 (myeloma)
  IC50: 1410 ± 150 nM

## COc1cc(F)ccc1C(=O)/C=C/c1cc2ccccc2[nH]c1=O [CTR-30]
184B5; [1]
  IC50: 2460 ± 140 nM
MCF-10A
  IC50: 2790 ± 590 nM

## COc1ccc2[nH]c(=O)c(/C=C/C(=O)c3ccc(F)cc3OC)cc2c1 [CTR-38]
184B5; [1]
  IC50: 160 ± 20 nM
MCF-10A
  IC50: 110 nM

## CC(C)C[C@H](NC(=O)[C@H](Cc1ccccc1)NC(=O)c1cnccn1)B(O)O [bortezomib, reference compound]
RPMI-8226BTZR
  resistance of RPMI-8226BTZR compared to RPMI-8226 parental cells: approximately 28 fold

## COc1ccc(C(=O)/C=C/c2cc3cc(OC)ccc3[nH]c2=O)c(OC)c1 [CTR-35]
184B5; [1]
  IC50: 4290 ± 60 nM
MCF-10A
  IC50: 2880 ± 540 nM

## N.N.[Cl][Pt][Cl] [Cisplatin, reference compound]
MCF-7; MCF-7, SRB, Table 2
  IC50: 25800 nM
MDA-MB-231; MDA-MB-231, SRB, Table 2
  IC50: 23600 nM
MDA-MB-468
  IC50: 31000 nM
184B5; SRB, Table 2
  IC50: 25500 nM

## COc1cccc(OC)c1C(=O)/C=C/c1cc2ccccc2[nH]c1=O [CTR-25, (E)-3-(3-(2,6-dimethoxyphenyl)-3-oxoprop-1-enyl)quinolin-2(1H)-one]
184B5; [1]
  IC50: 2640 ± 170 nM
MCF-10A
  IC50: 2640 ± 150 nM

## COc1ccc(OC)c(C(=O)/C=C/c2cc3ccccc3[nH]c2=O)c1 [CTR-26]
184B5; [1]
  IC50: 770 ± 110 nM
MCF-10A
  IC50: 910 ± 30 nM

## CCN(CC)CCCC(C)Nc1ccnc2cc(Cl)ccc12 (stereo not shown) [Chloroquine, reference compound]
MCF-7; Homo sapiens, MCF7, MCF-7, SRB, Table 2
  IC50: 38400 nM
MDA-MB-231; Homo sapiens, MDA-MB-231, SRB, Table 2
  IC50: 22500 nM
MDA-MB-468; Homo sapiens
  IC50: 28600 nM
184B5; Homo sapiens, SRB, Table 2
  IC50: 76100 nM

## CCOc1ccccc1C(=O)/C=C/c1cc2cc(OC)ccc2[nH]c1=O [CTR-40, (E)-3-(3-(2-ethoxyphenyl)-3-oxoprop-1-enyl)-6-methoxyquinolin-2(1H)-one]
184B5; [1]
  IC50: 100 ± 10 nM
MCF-10A
  IC50: 70 nM
